According to US6166076A, “Taste enhancing food additives” (Board of Supervisors of Louisiana State University and …, priority 1997, dated 2000):
Entries after “also recorded” stand apart in the source; their conditions may differ.

Columns and labels:
[1] = system: delayed rectifier K^+ channel; assay: whole-cell patch clamp, delayed rectifier K^+ channel (steady-state outward K^+ current at +40 mV) in rat fungiform taste receptor cells; assay type: cell-based, rat (Sprague-Dawley); settings: for effect on outward K^+ currents, specificity test: 10 μM, >10 min (maximal effect), significance by paired t test; for stimulation of taste receptor cells: summary statement
Description: (§1) The effects of free fatty acids ("FFAs") on taste buds isolated from rat fungiform papillae were examined to determine if a chemosensory (i.e. non-textural) cue for fats is located in the mouth. The methods used to isolate TRCs were generally as described in Behe et al., "Membrane Currents in Taste Cells of the Rat Fungiform Papilla: Evidence for Two Types of Ca Currents and Inhibition of K Currents by Saccharin," Journal of General Physiology, Vol. 96, pp. 1061-1084 (1990); Doolin et al., "Distribution and Characterization of Functional Amiloride-sensitive Sodium Channels in Rat Tongue," Journal of General Physiology, Vol. 107. pp. 545-554 (1996); and Gilbertson et al., "Proton Currents Through Amiloride-sensitive Na^+ Channels in Isolated Hamster Taste Cells: Enhancement by Vasopressin and cAMP," Neuron, Vol. 10, pp. 931-942 (1993).
(§2) Individual fungiform taste buds were isolated from the tongues of 2- to 5-month-old male Sprague-Dawley rats (Harlan Sprague Dawley, Indianapolis,Ind.). Animals were housed individually in polycarbonate cages with food (Purina #5001, Purina Mills, St. Louis, Mo.) provided ad lib. The room containing the rats was maintained at 21-23° C. on a 0700-1900 h light-dark cycle. All animal care and experimental procedures were in accordance with National Institutes of Health guidelines, and were approved by the Institutional Animal Care and Use Committee of the Pennington Biomedical Research Center.
(§3) Tongues were removed from euthanized rats, and were immediately placed in ice-cold Tyrode's solution. To remove the lingual epithelium containing the taste buds from the underlying muscle layer, approximately 1.0 ml of Tyrode's solution containing 0.3 mg/ml collagenase A (Boehringer Mannheim Corp., Indianapolis, Ind.), 2.5 mg/ml dispase (grade II; Boehringer Mannheim) and 1.0 mg/ml trypsin inhibitor (type I-S; Sigma Chemical Co., St. Louis, Mo.) was injected below the epithelium. The injected tongue was placed in Ca--Mg free Tyrode's solution and bubbled with O2 for 33-35 min. The lingual epithelium was removed and pinned serosal side up, allowing access to the taste buds. Fungiform taste buds were removed individually by gentle suction with a large, firepolished pipette (~200 μm diameter), and were plated onto Cell-Tak™-coated microscope slides (Collaborative Biomedical Prod., Bedford, Mass.) fitted with an O-ring which served as a recording chamber. Once plated, cells were perfused continually with Tyrode's or various test solutions. Taste buds isolated in this manner were used for up to 6 hours without any noticeable morphological or physiological decrement.
(§4) All chemicals were obtained from Sigma Chemical Corporation (St. Louis, Mo.) unless otherwise indicated. Normal extracellular solution (Tyrode's) contained (in mM): NaCl, 140; KCl, 5; CaCl2, 1; MgCl2, 1; HEPES (N-[2-hydroxyethyl] piperazine-N'-[2-ethanesulfonic acid), 10; glucose, 10; and sodium pyruvate, 10. The pH was adjusted to 7.40 with NaOH. In Ca^2+ --Mg^2+ free Tyrode's solution, 2 mM BAPTA (1,2-bis(2-aminophenoxy) ethane-N,N,N',N'-tetraacetic acid) (Molecular Probes, Eugene, Oreg.) replaced CaCl2 and MgCl2. Other components were identical to Tyrode's solution. Intracellular (pipette) solution contained (in mM): KCl, 140; CaCl2, 1 [free Ca^2+ was ~10^-8 M]; MgCl2, 2; HEPES, 10; EGTA (ethylene glycol-bis(β-aminoethylether)-N,N,N',N'-tetraacetic acid), 11; and ATP, 3. The pH was adjusted to 7.20 with KOH.
(§5) Free fatty acids (FFAs) were stored below -20° C. until the day of use, when they were dissolved in warm ethanol and diluted to final working concentrations in Tyrode's solution. Final ethanol concentrations in Tyrode's were below 0.1%; the ethanol had no effect on ionic currents in any TRCs. All FFAs were applied by bath perfusion. In some experiments, FFA-containing solutions were bubbled continuously with nitrogen to retard oxygenation. […]

[2] = system: outward K^+ currents in rat fungiform taste receptor cells; assay: whole-cell patch clamp, total outward voltage-activated currents in rat fungiform taste receptor cells; assay type: cell-based, rat (Sprague-Dawley)
Description: as §1
Individual fungiform taste buds were isolated from the tongues of 2- to 5-month-old male Sprague-Dawley rats (Harlan Sprague Dawley, Indianapolis,Ind.). Animals were housed individually in polycarbonate cages with food (Purina #5001, Purina Mills, St. Louis, Mo.) provided ad lib. The room containing the rats was maintained at 21-23° C. on a 0700-1900 h light-dark cycle. […]

[3] = system: delayed rectifying K^+ channels; assay: patch clamp, delayed rectifying K^+ channels of TRCs isolated from S5B/P1 rats; assay type: cell-based; settings: for inhibition of the delayed rectifying K^+ channels, S5B/P1 rats: TRCs from S5B/P1 rats; for sensitivity of S5B/P1 TRCs to inhibition compared with O-M TRCs: 10 μM, versus TRCs from O-M rats
Description: (§6) To determine if there is a link between the sensitivity of TRCs to PUFAs and dietary fat preferences, the PUFA-sensitivities of TRCs using patch clamp techniques were compared on TRCs isolated from Osborne-Mendel ("O-M") rats and S5B/P1 rats, strains with different dietary preferences. O-M rats prefer fat over carbohydrate, while S5B/P1 rats prefer carbohydrate over fat. […] Rats whose TRCs were more sensitive to the fatty acids have a preference for a lower-fat diet; while rats whose TRCs are less sensitive to fatty acids seek diets that are higher in fat.

[4] = system: delayed rectifying K^+ channels; assay: patch clamp, delayed rectifying K^+ channels of TRCs isolated from Osborne-Mendel rats; assay type: cell-based
Description: as §6

[5] = system: rat fungiform taste receptor cells; assay: current clamp, stimulus-induced depolarization of rat fungiform taste receptor cells; assay type: cell-based, rat (Sprague-Dawley)
Protocol: Voltage-activated currents were recorded from individual taste receptor cells maintained in the taste bud using the whole-cell patch clamp configuration, as generally described in Hamill et al., "Improved Patch-clamp Techniques for High-resolution Current Recording from Cells and Cell-free Membrane Patches," Pflugers Arch., Vol. 391, pp. 85-100 (1981). Patch pipettes were made by pulling mlcrohematocrit tubes (Scientific Products, McGaw Park, Ill.) on a Flaming/Brown micropipette puller (model P-97; Sutter Instrument Co., Novato, Calif.), and subsequently firepolishing on a microforge (model MF-9; Narishige, Tokyo) to a resistance between 5 and 10 M.OMEGA. when filled with intracellular solution.
Since arachidonic acid and linoleic acid inhibit K^+ currents in TRCs and these channels play crucial roles in repolarizing the cells following activity, the presence of such FFAs should affect how these cells respond during stimulus-induced activity. This prediction was tested in cells in current clamp mode during perfusion of saline, both in the absence and presence of 10 μM linoleic acid. In response to current injection (+18 pA), TRCs typically fired 0-3 action potentials, followed by a sustained depolarization lasting as long as the stimulus was present. […] On average, the sustained depolarization during current injection (18 pA) in the rat fungiform taste receptor cells was 22.4±8.5 mV during perfusion of physiological saline (n=7 cells). Addition of 10 μM linoleic acid to the perfusate of the same cells increased the mean voltage response to 36.8±9.2 mV (n=7), an increase of 64%.

[6] = system: inwardly rectifying K^+ channels (Kir); assay: whole-cell patch clamp, inwardly rectifying K^+ channels (Kir) at -130 mV in rat fungiform taste receptor cells; assay type: cell-based, rat (Sprague-Dawley); settings: n=5 cells
Description: as §1, §2, §3, §4, §5

O=S(=O)(c1cccc2cnccc12)N1CCNCC1 [HA-100, reference compound]
effect of PKC/PKA inhibitor on linoleic acid-induced inhibition of outward K^+ currents ([1]; 25 μM, intracellular, n=6 cells): did not prevent linoleic acid-induced inhibition of outward K^+ currents

CCCCC/C=C\C/C=C\C/C=C\C/C=C\CCCC(=O)OC [arachidonic acid methyl ester]
modulation of TRC K^+ currents by esterified fatty acid ([2]; arachidonic acid methyl ester: n=5 cells): ineffective

CCCCCCCC/C=C\CCCCCCCCCCCC(=O)O [erucic acid, reference compound]
effect on outward K^+ currents, specificity test [1]: did not have significant effects

Nc1nc2c(ncn2[C@@H]2O[C@H](COP(=O)(O)OP(O)(O)=S)[C@@H](O)[C@H]2O)c(=O)[nH]1 [guanosine 5'-O-(2-thiodiphosphate), reference compound]
effect of G protein inhibitor on FFA effects on outward currents ([1]; 0.5 mM in the patch pipette, n=5): did not inhibit the effects of FFA on outward currents

CCCCCCCCCCCC(=O)O [lauric acid, reference compound]
inhibition of the delayed rectifying K^+ channels, S5B/P1 rats [3]: ineffective | inhibition of the delayed rectifying K^+ channels, O-M rats [4]: ineffective

CCCCC/C=C\C/C=C\CCCCCCCC(=O)O [linoleic acid]
effect on stimulus-induced depolarization (in words) ([5]; 10 μM linoleic acid): significantly enhanced stimulus-induced depolarization of TRCs; also recorded: increase in the magnitude of stimulus-induced depolarization of taste receptor cells; also recorded: prolonged "tail" potential following termination of the stimulus | sustained depolarization during current injection (mean voltage response) ([5]; 10 μM linoleic acid, 18 pA, n=7 cells, saline 22.4±8.5 mV): 36.8±9.2 mV | activation at 10 µM ([5]; Rattus norvegicus, 10 μM, 18 pA, n=7, read-out: increase of mean voltage response over saline): 64% | sensitivity of S5B/P1 TRCs to inhibition compared with O-M TRCs [3]: significantly more sensitive to inhibition | inhibition of the delayed rectifying K^+ channels, S5B/P1 rats [3]: inhibited the delayed rectifying K^+ channels in a concentration-dependent manner | effect of intracellular application on outward K^+ currents ([1]; 10 μM in the pipette (intracellular) solution, up to 30 min or more): no effect | effect on outward K^+ currents, specificity test [1]: significantly reduced outward K^+ currents | effect on outward K^+ currents on subsequent extracellular addition ([1]; linoleic acid also in pipette, added extracellularly, n=11 cells): outward K^+ currents were inhibited | inhibition of outward K^+ currents in metyrapone-treated TRCs ([1]; metyrapone 1 mM, 15 min, n=6 cells): still inhibited by linoleic acid in a quantitatively similar fashion | stimulation of taste receptor cells [1]: stimulate taste receptor cells | relative potency among the FFAs tested ([1]; trend in effects on both types of K^+ currents): the most potent of the FFAs tested | inhibition of the delayed rectifying K^+ channels, O-M rats [4]: inhibited the delayed rectifying K^+ channels in a concentration-dependent manner

CCCCC/C=C/C/C=C/CCCCCCCC(=O)O [linolelaidic acid, reference compound]
effect on outward K^+ currents, specificity test [1]: did not significantly affect outward K^+ currents | effect on outward K^+ currents, specificity test ([1]; listed as linolelaidic): no effect on outward K^+ currents

CC/C=C/C/C=C/C/C=C/CCCCCCCC(=O)O [linolenelaidic acid, reference compound]
effect on outward K^+ currents, specificity test [1]: no effect on outward K^+ currents; also recorded: did not significantly affect outward K^+ currents

CC(C)(C(=O)c1cccnc1)c1cccnc1 [metyrapone]
inhibition at 1000 µM ([2]; Rattus norvegicus, 1 mM, n=6 cells, read-out: inhibition of the outward current by metyrapone alone): 23.8 ± 9.7%

CCCCCCCC/C=C\CCCCCCCCCCCCCC(=O)O [nervonic acid, reference compound]
effect on outward K^+ currents, specificity test [1]: did not have significant effects

CCCCCCCC/C=C\CCCCCCCC(=O)O [oleic acid, reference compound]
enhancement of Kir [6]: did not enhance Kir | effect on outward K^+ currents, specificity test [1]: did not have significant effects

CCCCCC/C=C\CCCCCCCC(=O)O [palmitoleic acid, reference compound]
effect on outward K^+ currents, specificity test [1]: did not have significant effects

linolenic acid
sensitivity of S5B/P1 TRCs to inhibition compared with O-M TRCs [3]: significantly more sensitive to inhibition | inhibition of the delayed rectifying K^+ channels, S5B/P1 rats [3]: inhibited the delayed rectifying K^+ channels in a concentration-dependent manner | effect on outward K^+ currents, specificity test [1]: significantly reduced outward K^+ currents | stimulation of taste receptor cells [1]: stimulate taste receptor cells | inhibition of the delayed rectifying K^+ channels, O-M rats [4]: inhibited the delayed rectifying K^+ channels in a concentration-dependent manner
